Data as given in paper PMC12775802, “Dual targeting of AMRC12 and Malassezia globosa disrupts MYC liquid condensates-driven nuclear pore complex biogenesis in neuroblastoma” (Theranostics, 2026).

Target: ARMC12 (Homo sapiens, UniProt Q5T9G4)
Details: recombinant wild-type protein; 20 uM (Figure 4F legend; b48 prints 20 mM); 4 °C, 2 h; compound covalently conjugated to beads; site at R320

Chain of ARMC12 (Q5T9G4 1-367 isoform Q5T9G4-2): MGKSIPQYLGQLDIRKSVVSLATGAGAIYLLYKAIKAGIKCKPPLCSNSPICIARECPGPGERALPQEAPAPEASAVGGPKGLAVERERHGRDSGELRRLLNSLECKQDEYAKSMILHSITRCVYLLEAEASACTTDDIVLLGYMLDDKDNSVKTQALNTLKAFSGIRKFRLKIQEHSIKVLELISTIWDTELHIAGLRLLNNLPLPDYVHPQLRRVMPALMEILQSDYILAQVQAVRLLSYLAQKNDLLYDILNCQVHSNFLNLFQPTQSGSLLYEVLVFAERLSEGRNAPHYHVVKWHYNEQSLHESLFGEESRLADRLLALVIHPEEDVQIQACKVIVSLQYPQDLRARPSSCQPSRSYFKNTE

With `Clc1ccc(C(Cn2ccnc2)OCc2ccsc2Cl)c(Cl)c1` (stereo not shown) [TCZ, tioconazole] the “affinity purification on compound-conjugated NHS beads, western blot” value was “TCZ directly interacted with recombinant wild-type ARMC12 protein rather than its mutant”.
